Measurements taken from US9987296B2, “Compositions including anthocyanin or anthocyanidin for the prevention or treatment of Articular cartilage-associated conditions” (priority 2008, dated 2018).
Entries after “also recorded” stand apart in the source; their conditions may differ.

Legend:
[1] = tested on: TGF-β; assay: TGF-β by ELISA after exposure of fibroblast cells to dextrose; format: cell-based; details: fibroblasts
Method: For completeness, the relationship between a saccharide (dextrose) and TGF-β was also examined. Fibroblasts were treated with varying amounts of dextrose and measured for the release of TGF-β. […] It appeared that 0.5% glucose provided the greatest proliferation of fibroblasts.

[2] = tested on: bovine cartilage explants; assay: Matrix synthesis (35S uptake) in bovine cartilage explants; format: cell-based
Method: Bovine cartilage explants (full thickness, 6 mm in diameter) were harvested from fresh femoral condyles. Human osteochondral plugs were harvested using 6 mm osteochondral grafting donor tool (Arthrez 1981-06S, Naples, Fla.) from femoral condyles retrieved from total knee arthroplasty surgery that had been stored in DMEM at 20 degrees C. for less than 24 hours. Full-thickness cartilage explants were cut from the subchondral bone. Each of the 6 mm cartilage disks were divided into 4 equal quadrants. Each quadrant was placed in a different experimental group. This allowed for a paired comparison and controlled for differences in grade of arthritis, thickness of cartilage, cell density, etc. The explants were washed 4-5 times with DMEM with 10% calf serum and were allowed to stabilize for 24 hours in a tissue culture incubator. Explants were then serum starved (0.1% calf serum) for 24 hours prior to commencement of cyanidin chloride treatment.
3 mL fresh media with 20 uCi/mL of ^35S-labeled sodium sulfate (NEX0414 Perkin Elmer, Boston, Mass.) (DMEM with 10% CS) was added to each of the explants along with 30 uL of 50 mM stock cyanidin chloride (MW 322.7 g/mole) solution (diluted in DMSO) (Chromadex Inc., Irvine, Calif.) to give the final cyanidin chloride concentration of (200 or 500 uM) in culture. Explants were subjected to cyanidin chloride treatment for 48 hours.
Radioactive media was aspirated after 48 hours and explants were washed in ice-cold 1×PBS for 10 minutes×3. Each cartilage explant quadrant was blotted dry and was placed in 500 uL of 2 mg/mL Proteinase K (Fisher Scientific, Fair Lawn, N.J.) in TE Buffer solution (10 mM Tris, 1 mM EDTA) and was allowed to rotate at 57 degrees C. for 24 hours in a hybridization oven until completely dissolved. Quantification of ^35S-labeled proteoglycans complexed to alcian blue by rapid filtration in multiwall plates was adopted and modified from Masuda et al Anal. Biochem 1994; 217:167-75. 75 uL of dilution buffer (50 mM Sodium Acetate pH^− 5.8. 0.5% Triton X-100) was added to each well of a 96 well plate (Millipore Multiscreen 96-well filtration system, Millipore, Billerica, Mass.) 25 uL of each digested cartilage explant sample was then loaded followed by 150 uL of 0.2% alcian blue solution (Alcian Blue 8GX electrophoresis grade, Sigma-Aldrich Inc., St. Louis Mo.) and was allowed to rotate for 1 hour at room temperature. The 96-well plate was then placed over a vacuum-manifold to aspirate the contents of the wells through the screen. The 3×200 uL vacuum washes with wash buffer (50 mM sodium acetate pI-I 5.8, 100 mM sodium sulfate, 50 mM MgCl2) were then performed. The 96-well filtration plate was then completely dried at 57 degrees C. for 5 minutes in a hybridization oven and was exposed to storage phosphor screen for 24 hours (Packard Instrument Company Inc., Meriden. Conn.). Phosphorimaging with Cyclone model A431200 (Packard Instrument Company Inc. Meriden, Conn.) was performed to quantify ^35S uptake by proteoglycans. ^35S uptake by proteoglycans in cartilage explants was normalized to DNA by Quant-iT ds DNA Assay Kit (Invitrogen Inc., Carlsbad Calif.).
The effect of cyanidin on bovine cartilage explants was tested. The dose response was also determined. Cartilage explants were treated with 1L-1 (50 ng/mL) for 24 hours. IL-1 reduces matrix synthesis and induces an inflammatory respond similar to osteoarthritis. Explants were then treated with cyanidin chloride at either 200 or 500 uM concentration for 24 hours. Matrix synthesis was monitored by measuring uptake of ^35S.
Bovine explants were initially subjected to IL-1 treatment for 24 hours. Explants were then treated with 500 uM cyanidin chloride in a low glucose (1 g/L) or high glucose concentration (4.5 g/L). […] The higher the glucose concentration increased matrix synthesis by 10%. The cyanidin treatment had small effect under low glucose conditions, but the effect was nearly 20% greater in the high glucose condition.

[3] = tested on: Human articular chondrocytes; assay: Cell viability (calcein AM / ethidium homodimer staining); format: cell-based; details: 96 hours
Source text: Chondrocytes were isolated from non-arthritic regions of adult human articular cartilage (N=3 donors) and expanded in tissue culture flasks in DMEM supplemented with 10% calf serum.
At higher concentrations, the color of the anthocyanin interfered with the spectrophotometer reading; therefore, cell viability was additionally measured with calcein staining as follows: Live and dead cells were simultaneously viewed in situ with a confocal microscope (LSM 510; Zeiss, Wetzlar, Germany), using a fluorescent double stain. Calcein AM (1 uM; Invitrogen, Carlsbad, Calif.), a fluorescein derivative that is metabolized by nonspecific esterase present in viable cells, was used to stain live cells. The use of 8 uM ethidium homodimer (Invitrogen), a nucleic acid stain that is excluded by intact cell membranes, enabled visualization of the nuclei of dead cells. After 96-hour exposure to the appropriate concentration of anthocyanins, chondrocytes were cultured in DMEM supplemented with Calcein AM and ethidium homodimer for 45 minutes. Live and dead cells were counted using an automated image analysis script written in Matlab (MathWorks, Natick, Mass.) to measure percentage cell viability.

[4] = tested on: IGF-1; assay: IGF-1 production by ELISA, cultured human chondrocytes; format: cell-based; details: for IGF-1 production: cultured chondrocytes treated with compound, presence and absence of IL-1; for IGF-1 production compared to IL-1 alone: human chondrocytes in culture, 5 or 50 ug/mL (FIGS. 5, 6)
Method: Chondrocytes were prepared by the enzymatic digestion of knee cartilage, as previously described. (Ahmed S et al., J Nutr 2005 135:20962102). Chondrocytes were plated (1×10^6 cells/mL) in 35 mm culture dishes (BD, Mountain View, Calif.) and cultured in DMEM:F12 (Mediatech, Herndon, Va.) supplemented with 10% FCS and 1% Penn:Strep for 72 hrs at 37° C. and 5% CO2 in a tissue culture incubator. Chondrocytes were serum starved overnight and then exposed to either kuromanin or cyanidin chloride (5 or 50 ug/mL), progrado (2 or 10 ug/mL) alone or in combination in fresh serum-free medium for 1 hr prior to the addition of IL-β.
Human IGF-1 label in chondrocytes culture or cartilage explant media was quantified using a commercially available Human IGF-1 ELISA kit (R& D Systems) per manufacturer's directions.

[5] = tested on: rodent pancreatic beta-cells; details: in culture, with 4 and 10 mM glucose; cited from earlier work
[6] = cited from earlier work
[7] = tested on: bovine chondrocytes; assay: Matrix synthesis rate (35S) of bovine chondrocytes in alginate beads; format: cell-based; details: 100 uM with TGF-β 10 ng/mL, 24 hours
Method: Chondrocytes were isolated from weight-bearing regions of young (18-30 months old) bovine femoral condyles. Primary cells were obtained from 3 different animals and suspended in beads of 2% alginate. The alginate beads were precultured in DMEM supplemented with 10% calf serum for 48 hours. Before the experiments, the chondrocytes were serum-starved overnight with 0.1% serum to reduce the effect of serum and to reduce anabolic activity to baseline.
For each treatment condition, 10 millicuries of ^35S was added to each well and incubated for the appropriate duration. At the appropriate harvest time point, each well was then washed extensively with PBS (5-6 times with 500 uL, of PBS), before trypsin and EDTA was added to dissolve alginate. After 20-30 minutes, the dissolved gels and released cells were transferred into 1.5 ml Eppendorf tubes with 150 uL, of calf serum (to promote pellet formation) and the cells were centrifuged at 2000 rpm for 5 minutes. The supernatant was removed via pipette without disturbing the cell pellet. The remaining cell and supernatant (approximately 300 ul) was then mixed with 500 uL of PBS and transferred to scintillation vials, to which 5 ml of scintillation fluid was dispensed. Each scintillation vial was capped, thoroughly vortexed and then placed in a gamma counter to measure gamma radiation emission for each sample. Each sample was measured for 5 minutes.

[8] = in vitro; cited from earlier work

| Compound | presence of TGF-β ([1]; higher amounts of glucose) | TGF-β expression ([1]; varying amounts of dextrose) | increase of matrix synthesis ([2]; higher glucose concentration (4.5 g/L vs 1 g/L), after IL-1) | cell viability ([3]; 500 uM) | toxicity relative to the other compounds tested ([3]; concentrations above 100 uM up to 500 uM) | effect on matrix synthesis, greater in high glucose than in low glucose ([2]; 500 uM, high glucose (4.5 g/L), after IL-1) | effect on matrix synthesis ([2]; 500 uM, low glucose (1 g/L), after IL-1) | matrix synthesis (35S uptake) ([2]; IL-1 50 ng/mL 24 hours, then 200 or 500 uM for 24 hours, listed as Cyanidin) | matrix synthesis (35S uptake) ([2]; IL-1 50 ng/mL 24 hours, then 200 or 500 uM for 24 hours, listed as cyanidin) | matrix synthesis (35S uptake) ([2]; IL-1 50 ng/mL 24 hours, then 200 or 500 uM for 24 hours, listed as cyanidin chloride) | matrix synthesis (35S uptake) ([2]; after IL-1, 500 uM combined with high glucose (4.5 g/L)) | IGF-1 production (media levels) ([4]; IL-1 with high dose 50 ug/mL) | IGF-1 production (media levels) ([4]; IL-1 with low dose 5 ug/mL) | IGF-1 production [4] | IGF-1 production (media levels) ([4]; high dose (50 ug/mL) alone) | IGF-1 production compared to IL-1 alone [4] | insulin secretion [5] | half-life [6] | matrix synthesis rates (growth factor synergy) [7] | oxygen radical absorbing capacity compared to Trolox (Vitamin E) [8] |
| --- | --- | --- | --- | --- | --- | --- | --- | --- | --- | --- | --- | --- | --- | --- | --- | --- | --- | --- | --- | --- |
| O=C[C@H](O)[C@@H](O)[C@H](O)[C@H](O)CO [glucose] | decreased the presence of TGF-β | does not increase TGF-β expression | 10% |  |  |  |  |  |  |  |  |  |  |  |  |  |  |  |  |  |
| Oc1cc(O)c2cc(O)c(-c3ccc(O)c(O)c3)[o+]c2c1 [Cyanidin chloride] |  |  |  | completely reducing cell viability | most toxic | ~20% | small effect | inconsistent effect | Initially a dose response was identified but difficult to reproduce | we could not reproduce this effect in several subsequent experiments | significantly induce chondroreparative activity; also recorded: increased matrix synthesis the most | no restoration of media IFG-1 levels | no restoration of media IFG-1 levels | Reduced production of IGF-1 | reduced IGF-1 production from control values | greater than IL-1 alone when treated with cyanidin alone at high levels and at low levels in combination with IL-1 |  |  |  |  |
| OC[C@H]1O[C@@H](Oc2cc3c(O)cc(O)cc3[o+]c2-c2ccc(O)c(O)c2)[C@H](O)[C@@H](O)[C@@H]1O.[Cl-] [Kuromanin chloride] |  |  |  |  |  |  |  |  |  |  |  | no effect over IL-1 | restoration of IGF-1 production | Reduced production of IGF-1 | reduced IGF-1 protein levels in the media to a similar level as to that seen with IL-1 | greater than IL-1 alone when treated with kuromanin at high levels and at low levels in combination with 1L-1 | stimulate insulin secretion | 1.5 to 2 h | synergistic effect on matrix synthesis rates | 3.5 times |
